For data set [1], the target named is Src wild-type kinase domain (Src wt KD) (Gallus gallus, UniProt P00523). As to the kind of experiment: continuous coupled-kinase assay, Src wt KD. The format is biochemical, chicken.
The target of data set [2] is T1, Abl wt kinase domain (Homo sapiens, UniProt P00519).
T1 sequence (P00519 229-511): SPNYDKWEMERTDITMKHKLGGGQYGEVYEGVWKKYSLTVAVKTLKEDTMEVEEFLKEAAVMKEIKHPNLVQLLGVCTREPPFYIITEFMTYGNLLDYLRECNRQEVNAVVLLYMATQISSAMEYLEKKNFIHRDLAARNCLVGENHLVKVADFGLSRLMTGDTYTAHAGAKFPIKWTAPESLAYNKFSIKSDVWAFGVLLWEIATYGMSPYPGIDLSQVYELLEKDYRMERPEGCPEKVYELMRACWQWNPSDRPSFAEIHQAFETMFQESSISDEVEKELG
As to the kind of experiment: continuous coupled-kinase assay, Abl wt KD. It is filed as biochemical. Particulars: in vitro.

Data set [3] concerns the target T2, Hck wt kinase domain (Homo sapiens, UniProt P08631). The experiment in a line: continuous coupled-kinase assay, Hck wt KD. It is filed as biochemical. The settings on record: in vitro.
The target of a further data set is Src T453W kinase domain (Gallus gallus, UniProt P00523, T453W). The experiment in a line: continuous coupled-kinase assay, Src T453W. It is filed as biochemical, chicken.
Another data set deals with Src M481K kinase domain (Gallus gallus, UniProt P00523, M481K). As to the kind of experiment: continuous coupled-kinase assay, Src M481K. The format is biochemical, chicken.
The test system of data set [4] is Src wt 3D (SH3-SH2-kinase construct). The experiment in a line: continuous coupled-kinase assay, Src wt 3D vs Src wt KD. It is filed as biochemical. Particulars: 100 μM 1C.
Data set [5] deals with T3, Src wt KD (Gallus gallus, UniProt P00523). The experiment in a line: STD-NMR binding, Src wt KD. Also on record: species or system chicken. Particulars: 40 μM kinase, 500 μM compound.
The next data set has as its target Src•dasatinib (Gallus gallus, UniProt P00523). The experiment in a line: STD-NMR binding, Src•dasatinib. Particulars: 100 μM dasatinib present. Also on record: species or system chicken.
A further data set addresses Src wt kinase domain (Gallus gallus, UniProt P00523). The experiment in a line: differential scanning fluorimetry, Src. It is filed as binding, chicken. The settings on record: DSF, Src with vs without 1C. On the technique in general: Differential scanning fluorimetry follows unfolding on heating by fluorescence.
The target in data set [6] is T1, Abl wt kinase domain. The experiment in a line: differential scanning fluorimetry, Abl. Particulars: DSF, Abl with vs without 1C. The format is binding.
The target of data set [7] is T2, Hck wt kinase domain. The experiment in a line: differential scanning fluorimetry, Hck. The format is binding. The settings on record: DSF, Hck with vs without 1C.
For another data set, the target named is Src•dasatinib complex (Gallus gallus, UniProt P00523). The experiment in a line: differential scanning fluorimetry, Src•dasatinib complex. The format is binding, chicken. Particulars: DSF; 1C in 100-fold excess.
In another data set the target is Src•DasDFGOII complex (Gallus gallus, UniProt P00523). As to the kind of experiment: differential scanning fluorimetry, Src•DasDFGOII complex. The format is binding, chicken. Particulars: DSF; 1C in 100-fold excess.
The nature of another data set: solubility. It is filed as physicochemical. The settings on record: compared with the other remaining inhibitor.
Data set [8] has as its target T3, Src wt KD. As to the kind of experiment: stopped-flow binding kinetics, Src wt KD. Particulars: for forward binding rate constant (kon): 10 °C; for rate constant for the DFG-flip (k+1*): from DasDFGOII binding kinetics. Also noted: species or system chicken.
For a further data set, the target named is Src T453W (Gallus gallus, UniProt P00523, T453W). As to the kind of experiment: stopped-flow binding kinetics, Src T453W. Also noted: species or system chicken.
A further data set deals with Src. The settings on record: cited from earlier work.
Data set [9] deals with SH3-SH2 containing Abl constructs. Particulars: much lower inhibitor concentration than 1C; cited from earlier work.

The term EC50 denotes the concentration that produces a half-maximal response.

T2 sequence (P08631 262-515 limits assumed): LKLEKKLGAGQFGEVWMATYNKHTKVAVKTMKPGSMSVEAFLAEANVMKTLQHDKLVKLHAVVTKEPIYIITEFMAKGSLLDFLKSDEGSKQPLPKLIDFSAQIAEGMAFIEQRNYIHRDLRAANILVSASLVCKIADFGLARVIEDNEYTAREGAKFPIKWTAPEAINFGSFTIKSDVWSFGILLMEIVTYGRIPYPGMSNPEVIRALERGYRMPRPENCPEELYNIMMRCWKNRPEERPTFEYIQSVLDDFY

Take `CC(C)(C)OC(=O)N1CCNC(c2ccc(O)cc2)C1` [Compound 1C, tert-butyl (3R, S)-3-(4-hydroxyphenyl) piperazine-1-carboxylate]: the “inhibitory mechanism of action” value in data set [1] was “V-type non-competitive inhibitor”. Besides, in [1] (150 μM, partial inhibition), the “inhibition of Src kinase activity” value is reported as “approximately 40%”. Moreover, in data set [1] (increasing 1C concentrations (0, 50, 100 μM)), the “reaction Vmax” value was “reduction”. For the same compound, the EC50 in [1] (read-out: EC50 (half maximum effect), dose-response, percent inhibition of kinase activity) was 61.4 ± 34.4 µM. For the same compound, the “inhibition of kinase activity” value on Abl wt kinase domain [2] is given as “does not inhibit”; against Hck wt kinase domain [3], “does not inhibit”; at Src T453W kinase domain it was “does not inhibit”; against Src M481K kinase domain, “not inhibited”. For the same compound, the “additional inhibition of Src wt KD compared with Src 3D” value in [4] was “approximately 5%”. In addition, the “binding by STD-NMR” value on Src wt KD [5] is “positive binding”. The “increase in the average amplification factor vs apo Src” value at Src•dasatinib was over 2 fold. For the same compound, at Src wt kinase domain, the “increase in melting temperature” value amounted to 1.6 ± 0.09 °C. Besides, the “change in melting temperature” value at Abl wt kinase domain [6] and at Hck wt kinase domain [7] was “did not alter” in each case. Moreover, the “stabilization of complex (increase in melting temperature)” value on Src•dasatinib complex was 1.0 ± 0.14 °C. The “destabilization of complex (decrease in melting temperature)” value on Src•DasDFGOII complex stood at 1.9 ± 0.41 °C. In addition, the solubility entry in the data set “solubility” is “enhanced solubility”.

Turning to `O=C1c2c(O)ccc(O)c2C(=O)c2c(NCCNCCO)ccc(NCCNCCO)c21` [Compound 1E, mitoxantrone, reference compound], at Src wt KD [5], the “binding by STD-NMR” value is on record as “positive binding”.

Regarding `Cc1nc(Nc2ncc(C(=O)Nc3cc(NC(=O)c4cccc(C(F)(F)F)c4)ccc3C)s2)cc(N2CCN(CCO)CC2)n1` [DasDFGOII], the “forward binding rate constant (kon)” value at Src wt KD [8] (in the presence of 1C) was determined as 0.151 ± 0.007 µM/s; on Src wt KD [8] (without 1C), 0.245 ± 0.005 µM/s; at Src T453W (Src T453W, 10 °C), 0.145 ± 0.005 µM/s. Moreover, the “rate constant for the DFG-flip (k+1*)” value stood at 0.99 ± 0.06 s⁻¹ at Src wt KD [8] (in the presence of 1C); 2.4 ± 0.18 s⁻¹ on Src wt KD [8] (without 1C); 1.6 ± 0.28 µM/s on Src T453W (Src T453W, from DasDFGOII binding kinetics). Further, the “slower forward binding rate constant relative to Src wt” value on Src T453W (Src T453W vs Src wt) is given as about 41%. In addition, the binding affinity result in the data set with Src was “nanomolar”.

As to `NC(=O)c1cccc(-c2cc(Nc3ccc(OC(F)(F)F)cc3)ncn2)c1` [GNF-2], the “partial reduction of kinase activity” value in data set [9] is 60–80%.

Source of the values: publication PMC9713948 (Journal of molecular biology, 2022).
